One data set concerns HepG2. The data set is described as follows: Antiproliferative activity against human HepG2 cells assessed as inhibition of cell growth by MTT assay. Type of data set: functional, cell-based.
A short description of data set [1]: Cytotoxicity against HEK293 cells assessed as inhibition of cell growth by MTT assay. Format: toxicity, cell-based. Conditions: human.
For data set [2], the system named is HCT-116. Kind of data set: Antiproliferative activity against human HCT-116 cells assessed as inhibition of cell growth by MTT assay. Type of data set: functional, cell-based.
The subject of a further data set is HeLa. The data set is described as follows: Antiproliferative activity against human HeLa cells assessed as inhibition of cell growth by MTT assay. Format: functional, cell-based.
Another data set concerns HT-29. The data set is described as follows: Antiproliferative activity against human HT-29 cells assessed as inhibition of cell growth by MTT assay. Format: functional, cell-based.
In data set [3] the test system is HCT-116. The data set is described as follows: Induction of cell cycle arrest in human HCT-116 cells assessed as accumulation of cells at S phase at 1.5 uM incubated for 24 hrs by PI staining based flow cytometry analysis (reference value: 47.56 %). Type of data set: functional.
A further data set concerns the target Tubulin (Homo sapiens) (UniProt P68371+Q9H4B7+P0DPH7+P68366+Q13509+Q71U36+P04350+Q3ZCM7+P07437+P68363+Q9BQE3+Q6PEY2+Q13885+Q9BVA1+Q9BUF5). The data set is described as follows: Inhibition of tubulin polymerization (unknown origin) at 10 uM measured every minute for 20 mins by fluorescence based assay relative to control. Format: protein-complex assay.
Data set [4] deals with HCT-116. The data set is described as follows: Induction of cell cycle arrest in human HCT-116 cells assessed as accumulation of cells at G1/G0 phase at 1.5 uM incubated for 24 hrs by PI staining based flow cytometry analysis (reference value: 31.33 %). Format: functional.
Data set [5] deals with HCT-116. The data set is described as follows: Induction of cell cycle arrest in human HCT-116 cells assessed as accumulation of cells at G2/M phase at 3 uM incubated for 24 hrs by PI staining based flow cytometry analysis (reference value: 21.10 %). Type of data set: functional.
The next data set deals with Tubulin. Kind of data set: Inhibition of tubulin polymerization (unknown origin) measured every minute for 20 mins by fluorescence based assay. Type of data set: protein-complex assay, Homo sapiens.
Data set [6] relates to HCT-116. Kind of data set: Induction of cell cycle arrest in human HCT-116 cells assessed as accumulation of cells at S phase at 0.75 uM incubated for 24 hrs by PI staining based flow cytometry analysis (reference value: 47.56 %). Format: functional.
Data set [7] has as its system HCT-116. The data set is described as follows: Induction of cell cycle arrest in human HCT-116 cells assessed as accumulation of cells at G2/M phase at 1.5 uM incubated for 24 hrs by PI staining based flow cytometry analysis (reference value: 21.10 %). Format: functional.
The test system of data set [8] is HCT-116. Kind of data set: Induction of cell cycle arrest in human HCT-116 cells assessed as accumulation of cells at G1/G0 phase at 3 uM incubated for 24 hrs by PI staining based flow cytometry analysis (reference value: 31.33 %). Type of data set: functional.
Data set [9] deals with HCT-116. Kind of data set: Induction of cell cycle arrest in human HCT-116 cells assessed as accumulation of cells at G1/G0 phase at 0.75 uM incubated for 24 hrs by PI staining based flow cytometry analysis (reference value: 31.33 %). Format: functional.
Data set [10] concerns HCT-116. The data set is described as follows: Induction of cell cycle arrest in human HCT-116 cells assessed as accumulation of cells at S phase at 3 uM incubated for 24 hrs by PI staining based flow cytometry analysis (reference value: 47.56 %). Format: functional.
Data set [11] has as its system HCT-116. Kind of data set: Induction of cell cycle arrest in human HCT-116 cells assessed as accumulation of cells at G2/M phase at 0.75 uM incubated for 24 hrs by PI staining based flow cytometry analysis (reference value: 21.10 %). Type of data set: functional.
Data set [12] addresses Vascular endothelial growth factor receptor 2 (Homo sapiens, UniProt P35968). The data set is described as follows: Inhibition of VEGFR2 (unknown origin) by kinase-glo luminescent assay.

A value given as a limit tells only on which side of the number the result lay.

Vascular endothelial growth factor receptor 2, sequence (P35968 whole entry): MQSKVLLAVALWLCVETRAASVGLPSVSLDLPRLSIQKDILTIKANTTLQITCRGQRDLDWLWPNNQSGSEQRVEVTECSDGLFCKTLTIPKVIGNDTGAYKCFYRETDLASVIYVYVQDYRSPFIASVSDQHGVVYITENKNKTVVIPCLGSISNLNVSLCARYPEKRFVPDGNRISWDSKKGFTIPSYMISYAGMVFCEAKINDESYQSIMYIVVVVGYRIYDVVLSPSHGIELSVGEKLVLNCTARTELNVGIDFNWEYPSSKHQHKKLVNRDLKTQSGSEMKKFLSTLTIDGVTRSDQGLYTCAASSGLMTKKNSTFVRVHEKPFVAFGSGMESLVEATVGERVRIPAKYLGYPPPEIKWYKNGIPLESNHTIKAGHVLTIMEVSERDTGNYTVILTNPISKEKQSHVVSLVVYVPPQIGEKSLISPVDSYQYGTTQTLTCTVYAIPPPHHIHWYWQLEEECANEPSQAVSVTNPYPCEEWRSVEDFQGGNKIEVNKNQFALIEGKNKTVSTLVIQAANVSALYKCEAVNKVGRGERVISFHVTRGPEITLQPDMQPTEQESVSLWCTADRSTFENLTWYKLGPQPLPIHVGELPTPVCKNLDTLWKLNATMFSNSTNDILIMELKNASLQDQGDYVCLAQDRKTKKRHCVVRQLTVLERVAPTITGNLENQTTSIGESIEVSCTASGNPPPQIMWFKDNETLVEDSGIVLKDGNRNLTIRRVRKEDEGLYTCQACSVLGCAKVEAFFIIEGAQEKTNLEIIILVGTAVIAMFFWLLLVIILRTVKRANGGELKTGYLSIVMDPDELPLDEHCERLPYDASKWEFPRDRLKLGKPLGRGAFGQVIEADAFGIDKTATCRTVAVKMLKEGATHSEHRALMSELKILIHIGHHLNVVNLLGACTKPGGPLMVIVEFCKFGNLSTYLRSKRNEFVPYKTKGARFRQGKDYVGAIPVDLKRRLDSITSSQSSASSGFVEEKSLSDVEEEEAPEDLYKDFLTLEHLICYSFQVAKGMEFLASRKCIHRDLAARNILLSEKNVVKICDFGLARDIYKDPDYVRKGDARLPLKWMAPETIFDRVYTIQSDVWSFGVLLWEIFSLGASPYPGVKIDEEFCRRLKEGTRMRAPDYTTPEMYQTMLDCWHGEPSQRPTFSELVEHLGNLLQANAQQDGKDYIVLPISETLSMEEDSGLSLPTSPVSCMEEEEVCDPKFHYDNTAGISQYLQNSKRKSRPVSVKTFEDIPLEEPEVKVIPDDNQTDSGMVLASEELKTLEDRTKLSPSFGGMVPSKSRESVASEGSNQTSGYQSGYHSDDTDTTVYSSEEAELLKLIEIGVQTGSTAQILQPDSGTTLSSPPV

As to `O=C(CSc1nnc(-c2ccccn2)n1N1C(=O)c2ccccc2C1=O)C1CC1`, in the data set with HepG2, the IC50 is > 100 µM.

With `COc1ccc(C(=O)CSc2nnc(Cc3cc(OC)c(OC)c(OC)c3)n2N)cc1`, the IC50 in [1] is > 100 µM; in the data set with HCT-116 [2], 4 µM; in the data set on HeLa it was 11.8 µM; in the data set on HT-29, 10.8 µM; in the data set on HepG2 it was 16.2 µM.

For `Cc1ccc(C(=O)CSc2nnc(-c3ccccn3)n2N2C(=O)c3ccccc3C2=O)cc1`, in the data set with HepG2, the concentration for half-maximal inhibition (IC50) came out at 65.2 µM.

On to `Cc1ccc(C(=O)CSc2nnc(-c3cnccn3)n2N2C(=O)c3ccccc3C2=O)cc1`, for which the IC50 in the data set with HepG2 was 89.7 µM.

Consider `COc1cc(Cc2nnc(SCC(=O)c3ccc(C(F)(F)F)cc3)n2N2C(=O)c3ccccc3C2=O)cc(OC)c1OC`, for which, in the data set on HepG2, the IC50 was 35.3 µM.

As to `COc1cc(Cc2nnc(SCC(=O)c3ccc(C)cc3)n2N)cc(OC)c1OC`, the IC50 was > 100 µM in data set [1]; 1.46 µM with HCT-116 [2]; 9.02 µM with HeLa; 12.7 µM against Tubulin; 0.62 µM with HT-29; 3.65 µM in the data set on HepG2. The Activity with HCT-116 [3] is 30.21%; in the data set on HCT-116 [4], 33.76%; in the data set on HCT-116 [5], 48.75%; in the data set with HCT-116 [6], 36.97%; in the data set with HCT-116 [7] it was 36.03%; in the data set with HCT-116 [8], 11.13%. The Activity in the data set on HCT-116 [9] amounted to 29.3%; in the data set on HCT-116 [10], 40.12%; in the data set with HCT-116 [11] it was 33.73%. For the same compound, the inhibition against Tubulin (Homo sapiens) worked out at 36%.

For `O=C(CSc1nnc(-c2ccccn2)n1N1C(=O)c2ccccc2C1=O)c1ccc(C(F)(F)F)cc1`, in the data set on HepG2, the IC50 amounted to 94.3 µM.

As to `O=C(CSc1nnc(-c2cnccn2)n1N1C(=O)c2ccccc2C1=O)c1ccc(C(F)(F)F)cc1`, in the data set on HepG2, the IC50 is > 100 µM.

Consider `COc1cc(Cc2nnc(SCC(C)=O)n2N2C(=O)c3ccccc3C2=O)cc(OC)c1OC`, for which the IC50 with HepG2 was > 100 µM.

`COc1cc(COc2nnc(SCC(=O)c3ccc(Cl)cc3)n2N2C(=O)c3ccccc3C2=O)cc(OC)c1OC`: in the data set with HepG2, the IC50 was > 100 µM.

For `COc1ccc(C(=O)CSc2nnc(Cc3cc(OC)c(OC)c(OC)c3)n2N2C(=O)c3ccccc3C2=O)cc1`, the IC50 with HepG2 came out at 61.1 µM.

As to `COc1ccc(/C=C\c2cc(OC)c(OC)c(OC)c2)cc1O` [COMBRETASTATIN A4], the IC50 with HCT-116 [2] was determined as 1.1 µM.

For `O=C(CSc1nnc(-c2ccccn2)n1N1C(=O)c2ccccc2C1=O)c1ccccc1`, the IC50 in the data set with HepG2 was > 100 µM.

Regarding `COc1cc(COc2nnc(SCC(=O)c3ccc(C)cc3)n2N2C(=O)c3ccccc3C2=O)cc(OC)c1OC`, the IC50 in the data set with HepG2 amounted to 80.3 µM.

Turning to `COc1ccc(C(=O)CSc2nnc(-c3ccccn3)n2N2C(=O)c3ccccc3C2=O)cc1`, in the data set on HepG2, the IC50 stood at 90.3 µM.

For `COc1cc(-c2nnc(SCC(=O)c3ccc(C)cc3)n2N2C(=O)c3ccccc3C2=O)cc(OC)c1OC`, the IC50 was > 100 µM in [1], > 100 µM in the data set on HCT-116 [2], 16.2 µM in the data set with HeLa and 76.4 µM in the data set with HT-29. The compound further displayed an inhibition against Tubulin (Homo sapiens) of 19%.

In the case of `O=C(CSc1nnc(-c2cnccn2)n1N1C(=O)c2ccccc2C1=O)c1ccc(Cl)cc1`, the IC50 in the data set with HepG2 was > 100 µM.

Take `CC(=O)CSc1nnc(-c2ccccn2)n1N1C(=O)c2ccccc2C1=O`: the IC50 with HepG2 was > 100 µM.

In the case of `COc1ccc(/C=N/n2c(SCC(=O)c3ccc(Cl)cc3)nnc2-c2cc3ccccc3[nH]2)cc1`, inhibition in data set [12] was half-maximal at 0.071 µM (IC50).

Turning to `O=C(CSc1nnc(-c2ccccn2)n1N1C(=O)c2ccccc2C1=O)c1ccc(Cl)cc1`, the IC50 in the data set with HepG2 stood at 78.3 µM.

Turning to `COc1cc(Cc2nnc(SCC(=O)C3CC3)n2N2C(=O)c3ccccc3C2=O)cc(OC)c1OC`, the IC50 in the data set on HepG2 is > 100 µM.

In the case of `O=C(CSc1nnc(-c2cnccn2)n1N1C(=O)c2ccccc2C1=O)C1CC1`, the IC50 in the data set with HepG2 was > 100 µM.

With `COc1cc(COc2nnc(SCC(=O)c3ccc(C)cc3)n2N)cc(OC)c1OC`, the IC50 is > 100 µM in [1]; 7.57 µM in the data set with HCT-116 [2]; 29.4 µM in the data set with HeLa; 12.2 µM in the data set with HT-29; 13.1 µM in the data set with HepG2.

For `COc1cc(Cc2nnc(SCC(=O)c3ccc(C)cc3)n2N2C(=O)c3ccccc3C2=O)cc(OC)c1OC`, the concentration for half-maximal inhibition (IC50) with HepG2 is > 100 µM.

As to `COc1cc(Cc2nnc(SCC(=O)c3ccc(Cl)cc3)n2N2C(=O)c3ccccc3C2=O)cc(OC)c1OC`, the IC50 in the data set with HepG2 came to 94.8 µM.

For the compound `CC(=O)CSc1nnc(-c2cnccn2)n1N1C(=O)c2ccccc2C1=O`, in the data set with HepG2, the IC50 was > 100 µM.

Consider `COc1cc(Cc2nnc(SCC(=O)c3ccccc3)n2N2C(=O)c3ccccc3C2=O)cc(OC)c1OC`, for which, in the data set with HepG2, the IC50 is 71.3 µM.

With `COc1ccc(C(=O)CSc2nnc(OCc3cc(OC)c(OC)c(OC)c3)n2N)cc1`, the half-maximal inhibitory concentration (IC50) is > 100 µM in data set [1]; > 100 µM in the data set with HCT-116 [2]; > 100 µM with HeLa; 67.6 µM in the data set with HT-29; 25.4 µM with HepG2.

For the origin of these results see ChEMBL document CHEMBL5143659, “Concise synthesis and preliminary biological evaluation of new triazolylthioacetone derivatives bearing pyridine, pyrazine, and 3,4,5-trimethoxybenzyl fragment” (Bioorg Med Chem Lett, 2022).
